{
  "source": "PubChem BioAssay AID2060355",
  "about": "(Molecular Pharmacology Branch, DTP, NCI, 2025)",
  "tested_on": "485368-065-R4-J2-PDC spheroids with HUVEC/MSC, viability",
  "test": "Anticancer human tumor 485368-065-R4-J2-PDC patient-derived pancreatic carcinoma cell line growth inhibition [TAK]",
  "details": "for IC50: curve of first compound; for viability, T/C: stronger effect = lower value",
  "from_the_text": "Combinatorial screen of targeted agents with TAK-243 and ipatasertib in multi-cell type tumor spheroids\nA high-throughput screen of multi-cell type tumor spheroids was designed to identify active combinations of targeted small molecules and TAK-243 or ipatasertib. Complex spheroids include a stromal component modeled by human endothelial cells (HUVEC) and fibroblasts modeled by human mesenchymal stem cells (MSCs). The concentration ranges selected for each drug and investigational agent were based upon clinically achievable concentrations if the clinical Cmax of the agent was known.\nCompounds. The drugs and investigational agents: TAK-243 (785004), ipatasertib (767898), everolimus (733504), selumetinib (741078), bortezomib (756655), trametinib (758246), ixazomib (758254), vemurafenib (761431), dabrafenib (764134), sapanisertib (764658), alpelisib (765974), and copanlisib (816437), were obtained from the National Cancer Institute (NCI) Developmental Therapeutics Program Chemical Repository. The FDA-approved anticancer drug set is available from the NCI Developmental Therapeutics Program. […] The stock solutions were prepared in dimethyl sulfoxide (DMSO, Sigma-Aldrich, St. Louis, MO, cat. D2650) at 800-fold the tested concentration and stored at -70 degrees C prior to their use. All drugs and investigational agents were tested over a range starting from a high concentration at or near the clinical Cmax and decreasing in half-log increments. If the clinical Cmax for an agent had not been determined, the highest concentration tested was 10 microM.\nNCI60 Cell Culture. NCI60 cell lines were obtained from the NCI Developmental Therapeutics Program Tumor Repository. For each lot of cells, the Repository performed Applied Biosystems AmpFLSTR Identifiler testing with PCR amplification to confirm consistency with the published Identifier STR profile for each cell line. Cells were kept in continuous culture for no more than 20 passages. The optimal seeding densities for each of the cell lines at each time point assessed were determined prior to performing the concentration response studies. Briefly, the NCI60 human tumor lines were grown as monolayers in RPMI 1640 medium supplemented with 10% FBS and 2 mmol/L L-glutamine.\nAn additional 2 lines were from the NCI60 cell line panel including melanomas, MALME-3M and SK-MEL-2. Pooled donor human umbilical vein endothelial cells (HUVEC, Lonza, cat. CC-2519) and human mesenchymal stem cells (hMSC, Lonza, cat. PT-2501) were purchased from Lonza (Walkersville, MD).\nPDMR cell lines were grown in complete medium (DC medium): Dulbecco's modified Eagle's medium (DMEM)/F12 supplemented with 5% fetal bovine serum (FBS), 2 mM L-glutamine, 100 U/mL penicillin and 100 µg/ml streptomycin, 0.4 µg/ml hydrocortisone, 10 ng/ml epidermal growth factor (EGF) recombinant human protein, 24 µg/mL adenine, and 0.1 mg/mL primocin. During culture from frozen stock vials, PDMR cells were cultured in the same medium containing 10 µM Y-27632 (see Table 3). The PDCs were cultured in complete DMEM/F12 media without 10 microM Y-27632 dihydrochloride for at least two passages prior to the screen. The pooled donor HUVEC and hMSC were cultured in endothelial cell growth medium 2 (PromoCell, Heidelberg, Germany, cat. C-22011) and mesenchymal stem cell growth medium 2 (PromoCell, cat. C-28009), respectively. For all experiments, HUVEC and hMSC were used at passages </=5.\nFor the pre-screen, cell seeding densities were determined from a titration spanning the range from 5,000 to 313 cells per well. The mct-spheroids including 60% malignant cells, 25% HUVEC and 15% MSC dispensed as a mixture into U-bottom Ultra-Low Attachment 384-well plates (Corning, NY)\nHigh-throughput Drug Combination Screening.\nPrior to their inoculation into 384-well plates, malignant cells, HUVEC, and hMSC were removed from T flasks using TrypLE express (Thermo Fisher Scientific, cat. 12605036) and harvested by centrifugation for 5 min at 233 x g. […]",
  "data": [
    {"compound": "CC(=O)Nc1cccc(-n2c(=O)n(C3CC3)c(=O)c3c(Nc4ccc(I)cc4F)n(C)c(=O)c(C)c32)c1", "note": "+ CC(C)NCC(C(=O)N1CCN(c2ncnc3c2C(C)CC3O)CC1)c1ccc(Cl)cc1;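 note: spheroids exposed to compounds for seven days before readout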;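 for viability, T/C: 100% = DMSO vehicle control wells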", "values": [
      {"measurement": "IC50", "setting": "second compound 0.3 µM", "value": 3.49, "unit": "nM"},
      {"measurement": "IC50", "setting": "second compound 0.949 µM", "value": 1.61, "unit": "nM"},
      {"measurement": "IC50", "setting": "second compound 3 µM", "value": 1.23, "unit": "nM"},
      {"measurement": "IC50", "setting": "second compound 9.49 µM", "value": 0.596, "unit": "nM"},
      {"measurement": "IC50", "setting": "second compound 30 µM", "value": 0.316, "unit": "nM"},
      {"measurement": "viability, T/C", "setting": "second compound 0.3 µM, first compound 94.9 pM", "value": 89.9, "unit": "%"},
      {"measurement": "viability, T/C", "setting": "second compound 0.3 µM, first compound 0.0003 µM", "value": 76.2, "unit": "%"},
      {"measurement": "viability, T/C", "setting": "second compound 0.3 µM, first compound 0.000949 µM", "value": 72.8, "unit": "%"},
      {"measurement": "viability, T/C", "setting": "second compound 0.3 µM, first compound 0.003 µM", "value": 51.8, "unit": "%"},
      {"measurement": "viability, T/C", "setting": "second compound 0.3 µM, first compound 0.00949 µM", "value": 33.5, "unit": "%"},
      {"measurement": "viability, T/C", "setting": "second compound 0.3 µM, first compound 0.03 µM", "value": 20.4, "unit": "%"},
      {"measurement": "viability, T/C", "setting": "second compound 0.949 µM, first compound 94.9 pM", "value": 94.2, "unit": "%"},
      {"measurement": "viability, T/C", "setting": "second compound 0.949 µM, first compound 0.0003 µM", "value": 92.3, "unit": "%"},
      {"measurement": "viability, T/C", "setting": "second compound 0.949 µM, first compound 0.000949 µM", "value": 61.8, "unit": "%"},
      {"measurement": "viability, T/C", "setting": "second compound 0.949 µM, first compound 0.003 µM", "value": 34.3, "unit": "%"},
      {"measurement": "viability, T/C", "setting": "second compound 0.949 µM, first compound 0.00949 µM", "value": 19.2, "unit": "%"},
      {"measurement": "viability, T/C", "setting": "second compound 0.949 µM, first compound 0.03 µM", "value": 12.7, "unit": "%"},
      {"measurement": "viability, T/C", "setting": "second compound 3 µM, first compound 94.9 pM", "value": 96.6, "unit": "%"},
      {"measurement": "viability, T/C", "setting": "second compound 3 µM, first compound 0.0003 µM", "value": 88.2, "unit": "%"},
      {"measurement": "viability, T/C", "setting": "second compound 3 µM, first compound 0.000949 µM", "value": 58.3, "unit": "%"},
      {"measurement": "viability, T/C", "setting": "second compound 3 µM, first compound 0.003 µM", "value": 22, "unit": "%"},
      {"measurement": "viability, T/C", "setting": "second compound 3 µM, first compound 0.00949 µM", "value": 12, "unit": "%"},
      {"measurement": "viability, T/C", "setting": "second compound 3 µM, first compound 0.03 µM", "value": 8.82, "unit": "%"},
      {"measurement": "viability, T/C", "setting": "second compound 9.49 µM, first compound 94.9 pM", "value": 89.8, "unit": "%"},
      {"measurement": "viability, T/C", "setting": "second compound 9.49 µM, first compound 0.0003 µM", "value": 70.1, "unit": "%"},
      {"measurement": "viability, T/C", "setting": "second compound 9.49 µM, first compound 0.000949 µM", "value": 36.3, "unit": "%"},
      {"measurement": "viability, T/C", "setting": "second compound 9.49 µM, first compound 0.003 µM", "value": 15.8, "unit": "%"},
      {"measurement": "viability, T/C", "setting": "second compound 9.49 µM, first compound 0.00949 µM", "value": 10.2, "unit": "%"},
      {"measurement": "viability, T/C", "setting": "second compound 9.49 µM, first compound 0.03 µM", "value": 7.89, "unit": "%"},
      {"measurement": "viability, T/C", "setting": "second compound 30 µM, first compound 94.9 pM", "value": 70.6, "unit": "%"},
      {"measurement": "viability, T/C", "setting": "second compound 30 µM, first compound 0.0003 µM", "value": 50, "unit": "%"},
      {"measurement": "viability, T/C", "setting": "second compound 30 µM, first compound 0.000949 µM", "value": 31.5, "unit": "%"},
      {"measurement": "viability, T/C", "setting": "second compound 30 µM, first compound 0.003 µM", "value": 13.8, "unit": "%"},
      {"measurement": "viability, T/C", "setting": "second compound 30 µM, first compound 0.00949 µM", "value": 10.2, "unit": "%"},
      {"measurement": "viability, T/C", "setting": "second compound 30 µM, first compound 0.03 µM", "value": 7.05, "unit": "%"}
    ]}
  ]
}
